Several values for one entry are separate records, joined by “and”; a condition that tells them apart may be missing. Equal entries are not always repeated.
How the values were obtained:
[1] = Oxygen radical absorbance capacity (ORAC) assay with fluorescein probe and AAPH; conditions: Trolox equivalents; 0.5 μM; 75 mM phosphate buffer pH 5.5; mean ± SD, n = 4 (a: n = 3)
From the text: In another aspect, the present invention also discloses antioxidant activities of the compositions having benzotropolone containing compounds disclosed herein. Oxygen radical absorbence capacity (ORAC) assay, which is a measure of free radical scavenging ability, is simple and sensitive method to measure the oxygen-radical absorbing capacity. It has been widely used for measuring the antioxidant activity of food and nutraceutical components. ORAC assay was developed by Cao et al., 1993, Free Radical Biol. Med. 14:303–311. In the assay, β-phycoerythrin (β-PE) was used as fluorescent indicator protein and 2,2′-Azobis(2-amidinopropane) dihydrochloride (AAPH) used as a peroxy radical generator. β-PE is a photosynthetic protein found in red algae. β-PE has been used as fluorescent probe because of its distinct excitation and emission wavelength (Ex. 540 nm, Em. 565 nm). The use of β-PE as a fluorescent probe, however, has certain defects. When reactive oxygen species attack the β-PE, it can easily lose the fluorescence. Furthermore, the ORAC value can be affected by possible interaction between polyphenols and proteins. Recently, Ou et al., 2001, J. Agric. Food Chem. 49:4619–4626 reported an improved ORAC method using fluorescein, instead of β-PE, as a fluorescent probe. Accordingly, fluorescein is used as a fluorescent probe in ORAC assays for testing the antioxidant activities of the compounds of the present invention.
Oxygen radical absorbance capacity (ORAC) assay was performed to examine antioxidant activity of individual theaflavins and epitheaflavic acids. All reagents were prepared in 75 mM phosphate buffer (pH 5.5). Reaction mixture consists of 3 mL of Fluorescein solution (8.16×10^−5 mM), 500 μL AAPH (153 mM), and 500 μL of sample solution or blank. Once AAPH was added, fluorescence was measured every 1 min using Hitachi Model F-3010 fluorescence spectrophotometer with emission and excitation wavelength of 515 and 493 nm, respectively. The ORAC value was calculated based on the area under the fluorescence decay curve of fluorescein in the presence of the test compound comparing to the area generated by standard Trolox and blank. The net area under the curve and ORAC values were calculated by the formula presented by Cao et al (Cao et al. 1993).
The relative ORAC value (Trolox equivalents) was calculated with following equation.
The area under curve (AUC) was calculated according to following equation. AUC=1+f1/f0+f2/f0+f3/f0+f4/f0 . . . +f119/f0+f120/f0 f0 is the initial fluorescence reading at 0 min, fi is the fluorescence reading at time i.
Quenching curves representing the peroxyl radical absorbing activity of Trolox in various concentration (0˜4 μM) was used as a standard (data not shown). The net area of quenching curve increased proportionally to an increment of the Trolox concentration. Quenching curves of theaflavins and EGCG were examined (data not shown). […] Quenching curves of epitheaflavic acids and EGCG were also examined. (data not shown).

[2] = system: TPA-induced Edema of Mouse Ear; test: TPA-induced ear edema assay (skin inflammation model); format: in vivo, female CD-I mice; conditions: 0.5 μmol topical in acetone 20 min before TPA (1 nmol); for Average weight of ear punches (mg) (Mean ± SE): 6 mm punches 5 h later; for Percent inhibition %: ear punch weight 5 h later
From the text: In yet another aspect of the invention, the present invention is directed to a method of preventing and/or treating inflammation in an animal using compositions having benzotropolone containing compounds disclosed herein. […] The anti-inflammatory activity (or anti-edema) of benzotropolone containing compounds of the present invention can be tested using 12–0-tetradecanoylphorbol- 13-acetate (TPA) TPA-induced inflammatory skin edema assay. Application of TPA on skin results in induction of omithine decarboxylase activity that increases the polyamine level and epidermal hyperplasia, and inflammation, and pro-inflammatory cytokine (e.g., IL-1β) and prostaglandins (prostaglandin E2) production at the site. The benzotropolone containing compounds can be applied either prior to or subsequent to or simultaneously with the topical application of TPA to skin tissue (e.g. mice ear).
The TPA (12-O-tetradecanoylphorbol-13-acetate)-induced ear edema assay was carried out to examine anti-inflammatory activity of benzotropolone-containing compounds in skin inflammation model. The female CD-I mice (24-25 days old) were topically treated with 20 μl of acetone and benzotropolone-containing compounds in 20 μl of acetone at 20 minutes before topical application of 20 μl of acetone or TPA (1 nmol) in 20 μl of acetone. Then, five hours later, all mice were sacrificed by cervical dislocation. The ear punches (6 mm in diameter) were taken and weighed.

TPA-induced ear edema = conditions: topical; cited from earlier work

## O=C(O[C@@H]1Cc2c(O)cc(O)cc2O[C@@H]1c1cc(O)c(O)c(O)c1)c1cc(O)c(O)c(O)c1 [EGCG, (−)-epigallocatechin-3-gallate, reference compound]
[1]
  Relative ORAC value: 7.69 ± 0.35
[2]
  Average weight of ear punches (mg) (Mean ± SE): 8.79 ± 0.54 mg
  Percent inhibition %: 68.3%

## O=C(O)c1cc(O)c(=O)c2c(O)c(O)ccc2c1 [GACa]
[2]
  Average weight of ear punches (mg) (Mean ± SE): 8.61 ± 0.54 mg
  Percent inhibition %: 83.3%

## O=C(OC1Cc2c(O)cc(O)cc2OC1c1cc(O)c(=O)c2c(O)c(O)cc(C3Oc4cc(O)cc(O)c4CC3O)c2c1)c1cc(O)c(O)c(O)c1 (stereo not drawn) [Neotheaflavin 3-gallate]
[2]
  Average weight of ear punches (mg) (Mean ± SE): 8.42 ± 0.42 mg
  Percent inhibition %: 88.4%

## O=c1c(O)cc([C@H]2Oc3cc(O)cc(O)c3C[C@H]2O)cc2c([C@H]3Oc4cc(O)cc(O)c4C[C@@H]3O)cc(O)c(O)c12 [Neotheaflavin]
[2]
  Average weight of ear punches (mg) (Mean ± SE): 10.58 ± 0.73 mg
  Percent inhibition %: 62.9%

## O=c1c(O)cccc2cc(O)c(O)c(O)c12 [Purprogallin, Purpurogallin]
[1]
  Relative ORAC value: 6.01 ± 0.42

## O=C(O)c1cc(O)c(=O)c2c(O)c(O)cc([C@H]3Oc4cc(O)cc(O)c4C[C@@H]3O)c2c1 [Theaflavic acid]
[2]
  Average weight of ear punches (mg) (Mean ± SE): 9.28 ± 0.37 mg and 8.95 ± 0.43 mg
  Percent inhibition %: 78.3% and 79.5%

## O=C(O[C@@H]1Cc2c(O)cc(O)cc2O[C@@H]1c1cc(=O)c(O)c2c(O)c(O)cc([C@H]3Oc4cc(O)cc(O)c4C[C@H]3O)c2c1)c1cc(O)c(O)c(O)c1 [Theaflavin 3-gallate]
[1]
  Relative ORAC value: 13.17 ± 0.18
[2]
  Average weight of ear punches (mg) (Mean ± SE): 7.86 ± 0.24 mg
  Percent inhibition %: 91.5%

## O=c1c(O)cc([C@H]2Oc3cc(O)cc(O)c3C[C@H]2O)cc2c([C@H]3Oc4cc(O)cc(O)c4C[C@H]3O)cc(O)c(O)c12 [Theaflavin]
[1]
  Relative ORAC value: 11.60 ± 0.30
[2]
  Average weight of ear punches (mg) (Mean ± SE): 7.90 ± 0.42 mg and 8.23 ± 0.40 mg
  Percent inhibition %: 89.2% and 87.8%

## Epigallocatechinocatechol gallate [EGCGCa]
[2]
  Average weight of ear punches (mg) (Mean ± SE): 7.49 ± 0.12 mg
  Percent inhibition %: 96.3%

## Epitheaflavic acid
[1]
  Relative ORAC value: 9.74 ± 0.38
[2]
  Average weight of ear punches (mg) (Mean ± SE): 9.39 ± 0.43 mg
  Percent inhibition %: 74.4%

## Neotheaflavate A
[2]
  Average weight of ear punches (mg) (Mean ± SE): 8.65 ± 0.64 mg
  Percent inhibition %: 85.7%

## Theaflavate A
[2]
  Average weight of ear punches (mg) (Mean ± SE): 8.52 ± 0.26 mg
  Percent inhibition %: 87.2%

## Theaflavate B
[2]
  Average weight of ear punches (mg) (Mean ± SE): 8.35 ± 0.32 mg
  Percent inhibition %: 89.2%

## Theaflavin 3,3′-digallate [Theaflavin 3,3′-gallate]
[1]
  Relative ORAC value: 13.54 ± 0.69
[2]
  Average weight of ear punches (mg) (Mean ± SE): 7.03 ± 0.18 mg
  Percent inhibition %: 100.0%
TPA-induced ear edema
  anti-inflammatory activity (rank order, Liang et al.): stronger than TF-2

## Theaflavin 3′-gallate
[1]
  Relative ORAC value: 12.40 ± 0.58
[2]
  Average weight of ear punches (mg) (Mean ± SE): 7.44 ± 0.18 mg
  Percent inhibition %: 100.0%
